Reference: US9550764B2, “Fused heterocyclic compounds and their use” (The Institute of Cancer Research: Royal Cancer Hospital, priority 2012, dated 2017)
Where two headings read alike, the source gives them in different places.

Tests used:
SMOV2 (A) = test: SRB proliferation assay, SMOV2 (PPM1D amplified); format: cell-based; conditions: Homo sapiens, SMOV2, PP1MD amplified cell line (A)
Source text: (§1) All cell lines were obtained from ATCC except KPL1 which was obtained from Leibniz Institute DSMZ-German Collection of Microorganisms and Cell Cultures, and SMOV2 which was obtained from Dr. Hiroaki Itamochi (Tottori University School of Medicine, Yonago, Japan; see also: ‘Establishment and characterization of human ovarian clear cell adenocarcinoma cell line (SMOV-2), and its cytotoxity by anticancer agents’, Yonamine K at al., Hum Cell., 1999, 12(3), 139-48; and ‘PPM1D Is a Potential Therapeutic Target in Ovarian Clear Cell Carcinoma’, David S. P. Tan et al., Clin Cancer Res, 2009, 15, 2269).
(§2) Representative compounds were assessed in a sulforhodamine B (SRB) proliferation assay in the cell lines shown in the Tables below, according to the following general procedure:
(§3) Cells were seeded in a 96 well plate at a number optimized for each cell line as known in the art; for example as described in Viachai et al, Nature Protocols, 2006, 1 1112-1116. Two fold dilutions of the compounds to be tested were made in culture medium so that, when diluted 5×, the final concentration in the wells was from 50 μM to 0.000191 μM (19 concentrations). A day after seeding the cells in 96 well plates, 25 μl of the compound diluted in the culture medium was added to 100 μl of the cells and incubated at 37° C. and 5% CO2 for 3 or 5 more days as required. After this time, cells were fixed by adding 10% ice cold TCA (in H2O) to 3% final concentration in the wells and by incubating at 4° C. for at least 2 h. Plates were washed 4 times in H2O and allowed to dry in the air. Added 100 μl of 0.057% SRB solution to the dried plates and incubated at room temperature for at least 30 min. Removed SRB solution from the plates and washed four times with 1% acetic acid. Plates were left overnight to dry in the air followed by addition of 100 μl of 10 mM Tris pH 10.5 to each well of the dried plates and incubation on a shaker for 5 min to solubilize the SRB. Optical density was measured at wave length of 490 nm using a plate reader and analysis performed to measure the GI50 using GraphPad PRISM.

TOV21G (NA) = test: SRB proliferation assay, TOV21G (non-amplified control); format: cell-based; conditions: Homo sapiens, 120 h, 5-day incubation, control not amplified (NA)
Source text: as §1, §2, §3

MCF7 (A) = test: SRB proliferation assay, MCF7 (amplified); format: cell-based; conditions: MCF7a, 120 h, 5-day incubation
Source text: as §1, §2
(§4) Cells were seeded in a 96 well plate at a number optimized for each cell line as known in the art; for example as described in Viachai et al, Nature Protocols, 2006, 1 1112-1116. Two fold dilutions of the compounds to be tested were made in culture medium so that, when diluted 5×, the final concentration in the wells was from 50 μM to 0.000191 μM (19 concentrations). […] Optical density was measured at wave length of 490 nm using a plate reader and analysis performed to measure the GI50 using GraphPad PRISM.

KPL1 (A) = test: SRB proliferation assay, KPL1 (amplified); format: cell-based; conditions: KPL-1, 120 h, 5-day incubation
Source text: as §1, §2, §4

MDAMB231 (NA) = test: SRB proliferation assay, MDAMB231 (non-amplified); format: cell-based; conditions: Homo sapiens, MDA-MB-231, 120 h; 5-day incubation; MDAMB231, not amplified (NA)
Source text: as §1, §2, §4

HeLa (NA) = test: SRB proliferation assay, HeLa (non-amplified); format: cell-based; conditions: Homo sapiens, 120 h, 5-day incubation, not amplified (NA)
Source text: as §1, §2, §4

Cama1 (NA) = test: SRB proliferation assay, Cama1 (non-amplified); format: cell-based; conditions: Homo sapiens, CAMA-1, 120 h; 5-day incubation; Cama1, not amplified (NA)
Source text: as §1, §2, §4

[1] = tested on: Phospho-p38, Phospho-p53 S15, cleaved PARP in SMOV2 cells; test: Western blot analysis of biomarker modulation in SMOV2 cells; format: cell-based, human; conditions: 24 hours treatment, FIG. 1
Procedure: FIG. 1 provides an image showing the results of a Western Blot (LDS-PAGE gel) for cleaved PARP, Phospho-p53 S15, Phospho-p38, and GAPDG, confirming modulation of the biomarkers expected for PP1 MD-mediated inhibition in SMOV2 cells as described in Example 2.
Biomarker modulation by representative compounds was assessed by Western blot analysis in SMOV2 cells using the following procedure:
On day one, 3×10^5 cells were plated per well in a 6 well plate. Next day cells were treated with DMSO control or indicated concentrations of the representative compounds for 24 hours. Treated cells were lysed in complete lysis buffer (50 mM NaCl, 20 mM Tris pH7.5, 1 mM EDTA, 1 mM EGTA, 1% Triton X100, 10 mM NaF, protease Inhibitor tablet and phosphatase inhibitor cocktails) on ice for 10 min. Soluble proteins were separated by centrifugation, and protein concentration was measured using Bradford assay. Samples with equal amount of proteins were prepared and run on LDS-PAGE. Separated proteins were transferred to the nitrocellulose membrane and probed with the Phospho-p38, Phospho-p53 S15, cleaved PARP, γ-H2AX and GAPDH antibodies.

[2] = 72 h, 3-day incubation, read-out: GI50 3-day SMOV2 (A) SRB
[3] = 120 h, 5-day incubation, read-out: GI50 5-day SMOV2 (A) SRB

Q: How did the GI50 (SMOV2 (A); [2]) turn out when CCc1cc(F)ccc1-c1nc(-c2ccc3[nH]c(=O)[nH]c3c2)cs1 [Compound 22, 5-(2-(2-ethyl-4-fluorophenyl)thiazol-4-yl)-1H-benzo[d]imidazol-2(3H)-one] was run?
A: The GI50 was 0.38 nM.

Q: And the GI50 (SMOV2 (A); [3])?
A: The GI50 was 0.2 nM.

Q: What about the GI50 (TOV21G (NA)) of the same molecule?
A: Its GI50 is 660 nM.

Q: How did the GI50 (SMOV2 (A); [2]) turn out when Cc1c(-c2nc(-c3ccc4[nH]c(=O)oc4c3)cs2)ccc(F)c1F [Compound 27, 6-(2-(3,4-difluoro-2-methylphenyl)thiazol-4-yl)benzo[d]oxazol-2(3H)-one] was run?
A: Its GI50 is 1.2 nM.

Q: What about the GI50 (SMOV2 (A); [3]) of the same molecule?
A: The GI50 was 0.2 nM.

Q: What about the GI50 (TOV21G (NA)) of the same molecule?
A: Its GI50 is over 10000 nM.

Q: With O=c1[nH]c2ccc(-c3cccc(-c4ccc(F)cc4)n3)cc2o1 [Compound 30, 6-(6-(4-fluorophenyl)pyridin-2-yl)benzo[d]oxazol-2(3H)-one] as the molecule, how does the GI50 (SMOV2 (A); [2]) read?
A: Its GI50 is 280 nM.

Q: And the GI50 (SMOV2 (A); [3])?
A: The GI50 was 35 nM.

Q: What about the GI50 (TOV21G (NA)) of the same molecule?
A: The GI50 was 2700 nM.

Q: With COCCOCc1cc(F)ccc1-c1nc(-c2ccc3[nH]c(=O)[nH]c3c2)cs1 [Compound 32, 5-(2-(4-fluoro-2-((2-methoxyethoxy)methyl)phenyl)thiazol-4-yl)-1H-benzo[d]imidazol-2(3H)-one] as the molecule, how does the GI50 (SMOV2 (A); [2]) read?
A: Its GI50 is 4.8 nM.

Q: What about the GI50 (SMOV2 (A); [3]) of the same molecule?
A: The GI50 was 1.6 nM.

Q: And the GI50 (TOV21G (NA))?
A: The GI50 was over 10000 nM.

Q: What about the GI50 (MCF7 (A)) of the same molecule?
A: The GI50 was 4.6 nM.

Q: And the GI50 (KPL1 (A))?
A: Its GI50 is 36 nM.

Q: And the GI50 (MDAMB231 (NA))?
A: Its GI50 is over 10 µM.

Q: And the GI50 (HeLa (NA))?
A: Its GI50 is 5.6 µM.

Q: And the GI50 (Cama1 (NA))?
A: Its GI50 is 3.9 µM.

Q: What about the “biomarker modulation (Western blot: cleaved PARP, Phospho-p53 S15, Phospho-p38)” value [1] of the same molecule?
A: Its value is “modulation of the biomarkers expected for PP1MD-mediated inhibition”.
